The text below walks through data of ChEMBL document CHEMBL3352114, “Synthesis and biological evaluation of unnatural derivatives of narciclasine: 7-aza-nornarciclasine and its N-oxide” (Bioorg Med Chem Lett, 2014).

Common to all, as to format: functional, cell-based
In assay [1] the test system is HeLa. The assay can be described thus: Cytotoxicity against human HeLa cells after 48 hrs by MTT assay. On the technique in general: Tetrazolium dyes change colour on reduction, which living cells bring about.
Assay [2] is described as follows: Cytotoxicity against human BxPC3 cells. Particulars: BXPC-3; call rule not given here.
Assay [3] concerns MCF7. Description: Cytotoxicity against human MCF7 cells after 48 hrs by MTT assay.
The subject of assay [4] is NCI-H460. The assay can be described thus: Cytotoxicity against human NCI-H460 cells.
The test system of assay [5] is DU-145. The assay can be described thus: Cytotoxicity against human DU145 cells.
[6] abbreviates: Homo sapiens, HeLa, 48 h, read-out: IC50.
The mark [7] stands for this setting: Homo sapiens, MCF7, 48 h, read-out: IC50.

The structures appear in SMILES notation.

In general, IC50 refers to the concentration that gives 50% inhibition. As to `CC(=O)OC[C@H]1[C@H](O)[C@@H](O)[C@@H](O)[C@@H]2NC(=O)c3c(cc4c(c3O)OCO4)[C@@H]12`, the concentration for half-maximal inhibition (IC50) is less than 400 nM in assay [1] (setting [6]), 70 nM in assay [2] and less than 400 nM in assay [3] (setting [7]).
Take `O=C(OC[C@H]1[C@H](O)[C@@H](O)[C@@H](O)[C@@H]2NC(=O)c3c(cc4c(c3O)OCO4)[C@@H]12)c1ccccc1`: the IC50 was less than 400 nM in assay [1] (setting [6]); 30 nM in assay [4]; 10 nM in assay [2]; 10 nM in assay [5]; less than 400 nM in assay [3] (setting [7]).
Take `O=C1N[C@@H]2C(=C[C@H](O)[C@@H](O)[C@H]2O)c2cccnc21` [listing 1 of 2 here]: the IC50 in assay [1] (setting [6]) and in assay [3] (setting [7]) was greater than 100000 nM each time.
As for `O=C1N[C@@H]2C(=C[C@H](O)[C@@H](O)[C@H]2O)c2ccc[n+]([O-])c21`, the IC50 in assay [1] (setting [6]) and in assay [3] (setting [7]) was greater than 100000 nM throughout.
As for `O=C1N[C@@H]2C(=C[C@H](O)[C@@H](O)[C@H]2O)c2cccnc21` [listing 2 of 2 here], the IC50 entry in assay [1] (hela) and in assay [3] (mcf7) was “Not Active” throughout.
As to `O=C1N[C@@H]2C(=C[C@H](O)[C@@H](O)[C@H]2O)c2cc3c(c(O)c21)OCO3` [NARCICLASINE], the half-maximal inhibitory concentration (IC50) in assay [4] turned out to be 50 nM; in assay [2], 50 nM; in assay [5] it was 30 nM.
